The assay deals with SK-CO-1 cell line. The assay can be described thus: Cell growth inhibition on SK-CO-1 cell line (SRB assay). It is filed as cell-based. Particulars: cultured with compound for 3 days, SRB colorimetric test. Here is the method: SK-CO-1 cell line purchased from the American Type Culture Collection (ATCC, USA) was cultured at […] with an EMEM medium (10% FBS, 1% penicillin/streptomycin) under the presence of 5% CO2. The cultured SK-CO-1 cell line was prepared in 5×10^4/100 μl, placed in a 96 well-plate, and cultured for one day. After that, the test compound was stepwise diluted in a ratio of 1/10 from 10 μM to 0.1 nM in the same EMEM medium, and then cultured for 3 days. In order to measure viability of the cell, a sulforhodamine B colorimetric (SRB, sigma Cat. S1402) test method was used. After discarding the medium, 0.1 ml of 10% trichloroacetic acid (TCA, Sigma Cat. T0699) was introduced to each well, and the cell line was fixed for 30 minutes to 1 hour, then washed with distilled water, and exposed in the air to dry the plate. After that, 100 μl of 0.4% SRB solution was introduced to each well, and the cell line was stained for 30 minutes at room temperature, and the plate was washed with distilled water and 1% acetic acid, and then dried in the air. 150 μl of […] trizma base solution was introduced to each well, and after dissolving the solid SRB therein, absorbance was measured at 540 nm using a microplate-reader. The growth inhibition value (GI50) of the cell line was calculated using a GraphPad Prism software.
For orientation: In SRB staining, fixed cells bind dye roughly in proportion to their protein.

What is called GI50 is the concentration that inhibits growth by half.

Regarding “1-(2-(((1^5Z,5Z)-2^5-fluoro-3-aza-1(3,6)-imidazo[1,2-b]pyridazina-2(4,2)pyrimidina-4(1,3)-benzenacyclohexapan-5-en-4^5-yl)oxy)ethyl)piperidin-4-ol [Example 1]”, the GI50 came out at 21 nM.
